Reference: PubChem BioAssay AID228 (DTP/NCI, 2004)
Several values for one entry are separate records, joined by “and”; a condition that tells them apart may be missing. Equal values may be shown once. Results filed as inconclusive are left out.

Test system: BDF1 mice, Friend leukemia sc, tumor weight T/C
Assay: NCI In Vivo Anticancer Drug Screen. Data for tumor model Friend Virus Leukemia (Solid) (subcutaneous) in B6D2F1 (BDF1) mice
Conditions: endpoint: mean tumor weight, schedule: Q01DX011 (ip), higher = larger tumour
Procedure: The antitumor activity of compounds was measured in mice bearing transplantable tumors. Survival or tumor size were measured and the results are expressed as the measurement made in the treated group (T) divided by the measurement made in the vehicle treated control group (C). The tumor model used in this assay is Friend Virus Leukemia (Solid) (subcutaneous) in B6D2F1 (BDF1) mice

[1] = dose: 3.0 mg/kg/injection, vehicle: carboxymethylcellulose (CMC)
[2] = dose: 25.0 mg/kg/injection, vehicle: carboxymethylcellulose (CMC)
[3] = dose: 50.0 mg/kg/injection, vehicle: carboxymethylcellulose (CMC)
[4] = dose: 100.0 mg/kg/injection, vehicle: carboxymethylcellulose (CMC)
[5] = dose: 62.5 mg/kg/injection, vehicle: carboxymethylcellulose (CMC)
[6] = dose: 125.0 mg/kg/injection, vehicle: carboxymethylcellulose (CMC)
[7] = dose: 250.0 mg/kg/injection, vehicle: carboxymethylcellulose (CMC)
[8] = dose: 42.0 mg/kg/injection, vehicle: carboxymethylcellulose (CMC)
[9] = dose: 7.0 mg/kg/injection, vehicle: carboxymethylcellulose (CMC)
[10] = dose: 14.0 mg/kg/injection, vehicle: carboxymethylcellulose (CMC)
[11] = dose: 4.0 mg/kg/injection, vehicle: carboxymethylcellulose (CMC)
[12] = dose: 5.0 mg/kg/injection, vehicle: carboxymethylcellulose (CMC)

## N=C(N)c1ccc(Nc2ccc(C(=N)N)cc2)cc1
dose: 5.0 mg/kg/injection, vehicle: water
  T/C: 186 % of control
dose: 7.5 mg/kg/injection, vehicle: water
  T/C: 164 % of control
dose: 10.0 mg/kg/injection, vehicle: water
  T/C: 154 % of control
dose: 15.0 mg/kg/injection, vehicle: water
  T/C: 180 % of control

## CC1CC(C)OS(=O)O1 (stereo unspecified)
dose: 44.0 mg/kg/injection, vehicle: saline
  T/C: 70 % of control
dose: 100.0 mg/kg/injection, vehicle: saline
  T/C: 71 % of control
dose: 150.0 mg/kg/injection, vehicle: saline
  T/C: 85 % of control

## CC(C)Sc1nc(N)nc2nc[nH]c12
[1]
  T/C: 97 % of control
[2]
  T/C: 14 % of control
[3]
  T/C: 2 % of control

## ClCCn1cnc2c(SCc3ccccc3Cl)ncnc21
[1]
  T/C: 72 % of control
dose: 6.0 mg/kg/injection, vehicle: carboxymethylcellulose (CMC)
  T/C: 81 % of control
dose: 12.0 mg/kg/injection, vehicle: carboxymethylcellulose (CMC)
  T/C: 77 % of control
[2]
  T/C: 36 % of control
[3]
  T/C: 43 % of control
[4]
  T/C: 43 % of control
dose: 200.0 mg/kg/injection, vehicle: carboxymethylcellulose (CMC)
  T/C: 10 % of control and 25 % of control
dose: 400.0 mg/kg/injection, vehicle: carboxymethylcellulose (CMC)
  T/C: 16 % of control

## CCOC(N)=O
dose: 37.5 mg/kg/injection, vehicle: carboxymethylcellulose (CMC)
  T/C: 68 % of control
dose: 62.12 mg/kg/injection, vehicle: carboxymethylcellulose (CMC)
  T/C: 110 % of control
[5]
  T/C: 58 % of control
dose: 75.0 mg/kg/injection, vehicle: carboxymethylcellulose (CMC)
  T/C: 50 % of control
[6]
  T/C: 67 % of control
dose: 125.25 mg/kg/injection, vehicle: carboxymethylcellulose (CMC)
  T/C: 95 % of control
dose: 150.0 mg/kg/injection, vehicle: carboxymethylcellulose (CMC)
  T/C: 52 % of control and 36 % of control
[7]
  T/C: 58 % of control and 66 % of control and 50 % of control
dose: 250.5 mg/kg/injection, vehicle: carboxymethylcellulose (CMC)
  T/C: 115 % of control
dose: 300.0 mg/kg/injection, vehicle: carboxymethylcellulose (CMC)
  T/C: 21 % of control
dose: 334.0 mg/kg/injection, vehicle: carboxymethylcellulose (CMC)
  T/C: 56 % of control and 37 % of control
dose: 450.0 mg/kg/injection, vehicle: carboxymethylcellulose (CMC)
  T/C: 20 % of control
dose: 600.0 mg/kg/injection, vehicle: carboxymethylcellulose (CMC)
  T/C: 26 % of control
dose: 800.0 mg/kg/injection, vehicle: carboxymethylcellulose (CMC)
  T/C: 36 % of control

## Cc1cc2nc3c(=O)[nH]c(=O)nc-3n(CCOC(=O)CCC(=O)O)c2cc1C
[8]
  T/C: 96 % of control
dose: 84.0 mg/kg/injection, vehicle: carboxymethylcellulose (CMC)
  T/C: 108 % of control
dose: 168.0 mg/kg/injection, vehicle: carboxymethylcellulose (CMC)
  T/C: 83 % of control
dose: 236.0 mg/kg/injection, vehicle: carboxymethylcellulose (CMC)
  T/C: 59 % of control

## S=P(N1CC1)(N1CC1)N1CC1
dose: 0.3 mg/kg/injection, vehicle: carboxymethylcellulose (CMC)
  T/C: 79 % of control
dose: 0.6 mg/kg/injection, vehicle: carboxymethylcellulose (CMC)
  T/C: 73 % of control
dose: 0.96 mg/kg/injection, vehicle: carboxymethylcellulose (CMC)
  T/C: 72 % of control
dose: 1.6 mg/kg/injection, vehicle: carboxymethylcellulose (CMC)
  T/C: 99 % of control
dose: 2.4 mg/kg/injection, vehicle: carboxymethylcellulose (CMC)
  T/C: 61 % of control and 73 % of control

## CCCC(Sc1nc(N)nc2nc[nH]c12)C(=O)O (stereo unspecified)
dose: 40.0 mg/kg/injection, vehicle: carboxymethylcellulose (CMC)
  T/C: 77 % of control
dose: 80.0 mg/kg/injection, vehicle: carboxymethylcellulose (CMC)
  T/C: 45 % of control
dose: 160.0 mg/kg/injection, vehicle: carboxymethylcellulose (CMC)
  T/C: 5 % of control

## Nc1nc2ncc(CNc3ccc(C(=O)NC(CCC(=O)O)C(=O)O)cc3)nc2c(=O)[nH]1 (stereo unspecified)
[9]
  T/C: 56 % of control
[10]
  T/C: 105 % of control
dose: 28.0 mg/kg/injection, vehicle: carboxymethylcellulose (CMC)
  T/C: 79 % of control
dose: 56.0 mg/kg/injection, vehicle: carboxymethylcellulose (CMC)
  T/C: 70 % of control

## CC(Cl)CN(Cc1cc(O)c(CN(CC(C)Cl)CC(C)Cl)cc1O)CC(C)Cl (stereo unspecified)
[5]
  T/C: 66 % of control
[6]
  T/C: 44 % of control

## COc1ccc(Nc2ccnc3cc(Cl)ccc23)cc1CN(CCCl)CCCl
dose: 1.0 mg/kg/injection, vehicle: carboxymethylcellulose (CMC)
  T/C: 81 % of control
dose: 2.0 mg/kg/injection, vehicle: carboxymethylcellulose (CMC)
  T/C: 76 % of control
[11]
  T/C: 42 % of control

## N[C@@H](Cc1ccc(N(CCCl)CCCl)cc1)C(=O)O
dose: 1.25 mg/kg/injection, vehicle: carboxymethylcellulose (CMC)
  T/C: 84 % of control
dose: 2.5 mg/kg/injection, vehicle: carboxymethylcellulose (CMC)
  T/C: 50 % of control
dose: 3.75 mg/kg/injection, vehicle: carboxymethylcellulose (CMC)
  T/C: 53 % of control
[11]
  T/C: 35 % of control
[12]
  T/C: 35 % of control

## CCn1cnc2c(SC)nc(N)nc21
[2]
  T/C: 83 % of control
[3]
  T/C: 73 % of control
[4]
  T/C: 23 % of control

## S=c1nc[nH]c2nc[nH]c12
dose: 0.03 mg/kg/injection, vehicle: carboxymethylcellulose (CMC)
  T/C: 55 % of control
dose: 0.05 mg/kg/injection, vehicle: carboxymethylcellulose (CMC)
  T/C: 61 % of control
dose: 3.5 mg/kg/injection, vehicle: carboxymethylcellulose (CMC)
  T/C: 21 % of control
[12]
  T/C: 2 % of control and 10 % of control and 12 % of control
[9]
  T/C: 13 % of control
[10]
  T/C: 9 % of control
[8]
  T/C: 4 % of control and 7 % of control and 16 % of control

## CC(=O)Nc1ccc(NC(=O)c2ccc([As](O)O)cc2)cc1
dose: 30.0 mg/kg/injection, vehicle: carboxymethylcellulose (CMC)
  T/C: 111 % of control
dose: 60.0 mg/kg/injection, vehicle: carboxymethylcellulose (CMC)
  T/C: 109 % of control
dose: 120.0 mg/kg/injection, vehicle: carboxymethylcellulose (CMC)
  T/C: 101 % of control

## Nc1nc(SCc2ccccc2)c2ncn(C3CCCC3)c2n1
[7]
  T/C: 69 % of control
dose: 500.0 mg/kg/injection, vehicle: carboxymethylcellulose (CMC)
  T/C: 64 % of control
dose: 1000.0 mg/kg/injection, vehicle: carboxymethylcellulose (CMC)
  T/C: 5 % of control

## O=S(=O)(O)c1cccnc1
dose: 39.0 mg/kg/injection, vehicle: carboxymethylcellulose (CMC)
  T/C: 86 % of control and 101 % of control
dose: 157.0 mg/kg/injection, vehicle: carboxymethylcellulose (CMC)
  T/C: 98 % of control and 110 % of control

## Cn1c(O)c(N=NC(N)=S)c2ccccc21
dose: 15.0 mg/kg/injection, vehicle: saline
  T/C: 110 % of control
dose: 30.0 mg/kg/injection, vehicle: saline
  T/C: 105 % of control
dose: 60.0 mg/kg/injection, vehicle: saline
  T/C: 108 % of control
dose: 120.0 mg/kg/injection, vehicle: saline
  T/C: 75 % of control
dose: 240.0 mg/kg/injection, vehicle: saline
  T/C: 94 % of control
